Reference: US10604554B2, “Double-acylated GLP-1 derivatives” (Novo Nordisk A/S, priority 2012, dated 2020)

Legend:
human GLP-1 receptor [1] = target: T1, human GLP-1 receptor (Homo sapiens, UniProt P43220); assay: GLP-1 receptor binding (SPA, displacement of 125I-GLP-1)
T1 construct: expressed in transfected cells; host or cells: BHK cells, clone FCW467-12A/KZ10-1 (parent line BHKTS13), further transfected with CRE luciferase
Protocol: The purpose of this experiment is to investigate the binding to the GLP-1 receptor of the GLP-1 derivatives, and how the binding is potentially influenced by the presence of albumin. This is done in an in vitro experiment as described below.
In order to test the binding of the derivatives to albumin, the assay was performed with a low concentration of albumin (0.001%—corresponding to the residual amount thereof in the tracer), as well as with a high concentration of albumin (2.0% added). A shift in the binding affinity, IC50, is an indication that the peptide in question binds to albumin, and thereby a prediction of a potential protracted pharmacokinetic profile of the peptide in question in animal models.
Species (in vitro): Hamster
Biological End Point: Receptor Binding
A stable transfected cell line and a high expressing clone were selected for screening. The cells were grown at 5% CO2 in DMEM, 10% FCS, 1% Pen/Strep (Penicillin/Streptomycin) and 1.0 mg/ml of the selection marker G418.
The cells (approx. 80% confluence) were washed twice in PBS and harvested with Versene (aqueous solution of the tetrasodium salt of ethylenediaminetetraacetic acid), following which they were separated by centrifugation at 1000 rpm for 5 min. The cells/cell pellet must be kept on ice to the extent possible in the subsequent steps. The cell pellet was homogenised with Ultrathurrax for 20-30 seconds in a suitable amount of Buffer 1 (depending on the amount of cells, but e.g. 10 ml). The homogenate was centrifuged at 20000 rpm for 15 minutes. The pellet was resuspended (homogenised) in 10 ml Buffer 2 and re-centrifuged. This step was repeated once more. The resulting pellet was resuspended in Buffer 2, and the protein concentration was determined. The membranes were stored at minus 80° C.
Buffer 1:20 mM Na-HEPES+10 mM EDTA, pH 7.4
Buffer 2:20 mM Na-HEPES+0.1 mM EDTA, pH 7.4
Test compounds, membranes, SPA-particles and [^125I]-GLP-1(7-36)NH2 were diluted in assay buffer. 50 ul (micro liter) HSA (“high albumin” experiment containing 2% HSA), or buffer (“low albumin” experiment containing 0.001% HSA) was added to Optiplate, and 25 ul of test compounds were added. 5-10 ug membrane protein/sample was added (50 ul) corresponding to 0.1-0.2 mg protein/ml (to be preferably optimised for each membrane preparation). SPA-particles (Wheatgerm agglutinin SPA beads, Perkin Elmer, # RPNQ0001) were added in an amount of 0.5 mg/well (50 ul). The incubation was started with [^125I]-GLP-1]-(7-36)NH2 (final concentration 0.06 nM corresponding to 49.880 DPM, 25 ul). The plates were sealed with PlateSealer and incubated for 120 minutes at 30° C. while shaking. The plates were centrifuged (1500 rpm, 10 min) and counted in Topcounter.

human GLP-1 receptor [2] = target: T1, human GLP-1 receptor; assay: In vitro potency (CRE luciferase; whole cells); format: cell-based; parameters: EC50/pM (ratio 1% HSA/0% HSA): unit not given here; details: for EC50: BHK cells; for EC50/pM (ratio 1% HSA/0% HSA): ratio of EC50 at 1% HSA to EC50 at 0% HSA
Protocol: The purpose of this example is to test the activity, or potency, of the GLP-1 derivatives in vitro. The in vitro potency is the measure of human GLP-1 receptor activation in a whole cell assay.
In vitro potency was determined by measuring the response of human GLP-1 receptor in a reporter gene assay. The assay was performed in a stably transfected BHK cell line that expresses the human GLP-1 receptor and contains the DNA for the cAMP response element (CRE) coupled to a promoter and the gene for firefly luciferase (CRE luciferase). When the human GLP-1 receptor was activated it results in the production of cAMP, which in turn results in the luciferase protein being expressed. When assay incubation was completed the luciferase substrate (luciferin) was added and the enzyme converts luciferin to oxyluciferin and produces bioluminescence. The luminescence was measured and was the readout for the assay.
An increase of the in vitro potency, EC50 value, in the presence of serum albumin indicates an affinity to serum albumin and represents a method to predict a protracted pharmacokinetic profile of the test substance in animal models.
The cells were cultured at 5% CO2 in cell culture medium. They were aliquoted and stored in liquid nitrogen. Before each assay an aliquot was taken up and washed twice in PBS before being suspended at the desired concentration in the assay specific buffer.
The following chemicals were used in the assay: Pluronic F-68 (10%) (Gibco 2404), human serum albumin (HSA) (Sigma A9511), ovalbumin (Sigma A5503), DMEM w/o phenol red (Gibco 11880-028), 1 M Hepes (Gibco 15630), Glutamax 100× (Gibco 35050) and steadylite plus (PerkinElmer 6016757).
1) Cell stocks were thawed in a 37° C. water bath.
2) Cells were washed three times in PBS.
3) The cells were counted and adjusted to 5×10^3 cells/50 μl (1×10^5 cells/ml) in assay medium. A 50 μl aliquot of cells was transferred to each well in the assay plate.
4) Stocks of the test compounds and reference compounds were diluted to a concentration of 0.2 μM in 0% assay buffer for the 0% HSA CRE luciferase assay and 1% assay buffer for the HSA CRE luciferase assay. […] 5) A 50 μl aliquot of compound or blank was transferred in triplicate from the dilution plate to the assay plate. […] 7) The assay plate was removed from the incubator and allowed to stand at room temperature for 15 min. 8) A 100 μl aliquot of steadylite plus reagent was added to each well of the assay plate (reagent was light sensitive). 9) Each assay plate was covered with aluminum foil to protect it from light and shaken for 30 min at room temperature. 10) Each assay plate was read in a Packard TopCount NXT instrument. Calculations and Results
The data from the TopCount instrument were transferred to GraphPad Prism software. The software averages the values for each replicate and performs a non-linear regression.

[3] = Receptor binding affinity IC50 (high HSA), 2.0% HSA (high albumin)
[4] = Receptor binding affinity IC50 (low HSA), 0.001% HSA (low albumin)
[5] = In vitro potency (CRE luciferase) EC50 (0% HSA), 0% HSA
[6] = In vitro potency (CRE luciferase) EC50 (1% HSA), 1% HSA

T1 sequence (P43220 24-463): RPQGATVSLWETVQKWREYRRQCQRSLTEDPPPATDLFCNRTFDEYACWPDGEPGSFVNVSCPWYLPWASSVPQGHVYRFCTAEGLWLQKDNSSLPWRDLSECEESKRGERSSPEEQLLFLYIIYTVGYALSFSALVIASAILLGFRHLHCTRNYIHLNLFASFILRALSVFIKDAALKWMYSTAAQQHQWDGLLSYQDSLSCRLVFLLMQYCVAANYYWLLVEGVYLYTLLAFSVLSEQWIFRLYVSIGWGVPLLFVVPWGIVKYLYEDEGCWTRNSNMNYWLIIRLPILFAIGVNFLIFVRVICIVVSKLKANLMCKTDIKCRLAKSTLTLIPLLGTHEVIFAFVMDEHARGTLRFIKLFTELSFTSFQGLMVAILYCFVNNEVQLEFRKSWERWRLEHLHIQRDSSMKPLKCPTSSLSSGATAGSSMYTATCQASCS

Compound | IC50 (human GLP-1 receptor [1]; [3]) [pM] | IC50 (human GLP-1 receptor [1]; [4]) [pM] | EC50 (human GLP-1 receptor [2]; [5]) [pM] | EC50 (human GLP-1 receptor [2]; [6]) [pM] | EC50/pM (ratio 1% HSA/0% HSA) (human GLP-1 receptor [2])
CC[C@H](C)[C@H](NC(=O)[C@H](Cc1ccccc1)NC(=O)[C@H](CCC(=O)O)NC(=O)[C@H](CCCCNC(=O)[C@@H](N)CCCCNC(=O)[C@@H](N)CCCCNC(=O)CC[C@H](NC(=O)CCCCCCCCCOc1ccc(C(=O)O)cc1)C(=O)O)NC(=O)[C@H](C)NC(=O)[C@H](C)NC(=O)[C@H](CCC(N)=O)NC(=O)CNC(=O)[C@H](CCC(=O)O)NC(=O)[C@H](CC(C)C)NC(=O)[C@H](Cc1ccc(O)cc1)NC(=O)[C@H](CO)NC(=O)[C@H](CO)NC(=O)[C@@H](NC(=O)[C@H](CC(=O)O)NC(=O)[C@H](CO)NC(=O)[C@@H](NC(=O)[C@H](Cc1ccccc1)NC(=O)[C@@H](NC(=O)CNC(=O)[C@H](CCC(=O)O)NC(=O)C(C)(C)NC(=O)[C@@H](N)Cc1c[nH]cn1)[C@@H](C)O)[C@@H](C)O)C(C)C)C(=O)N[C@@H](C)C(=O)N[C@@H](Cc1c[nH]cn1)C(=O)N[C@@H](CC(C)C)C(=O)N[C@H](C(=O)N[C@@H](CCC(N)=O)C(=O)NCC(=O)N[C@@H](CCCNC(=N)N)C(=O)N[C@@H](CCCCNC(=O)[C@@H](N)CCCCNC(=O)[C@@H](N)CCCCNC(=O)CC[C@H](NC(=O)CCCCCCCCCOc1ccc(C(=O)O)cc1)C(=O)O)C(=O)O)C(C)C [Example 32, N^ε26-[(2S)-2-amino-6-[[(2S)-2-amino-6-[[(4S)-4-carboxy-4-[10-(4-carboxyphenoxy)decanoylamino]butanoyl]amino]hexanoyl]amino]hexanoyl], N^ε37-[(2S)-2-amino-6-[[(2S)-2-amino-6-[[(4S)-4-carboxy-4-[10-(4-carboxyphenoxy)decanoylamino]butanoyl]amino]hexanoyl]amino]hexanoyl]-[Aib^8,His^31,Gln^34,Lys^37]-GLP-1-(7-37)-peptide] | 27000 | 1570 | 11 | 162 | 14
CC[C@H](C)[C@H](NC(=O)[C@H](Cc1ccccc1)NC(=O)[C@H](CCC(=O)O)NC(=O)[C@H](CCCCNC(=O)[C@@H](N)CCCCNC(=O)CC[C@H](NC(=O)CC[C@H](NC(=O)CCCCCCCCCCOc1ccc(C(=O)O)cc1)C(=O)O)C(=O)O)NC(=O)[C@H](C)NC(=O)[C@H](C)NC(=O)[C@H](CCC(N)=O)NC(=O)CNC(=O)[C@H](CCC(=O)O)NC(=O)[C@H](CC(C)C)NC(=O)[C@H](Cc1ccc(O)cc1)NC(=O)[C@H](CO)NC(=O)[C@H](CO)NC(=O)[C@@H](NC(=O)[C@H](CC(=O)O)NC(=O)[C@H](CO)NC(=O)[C@@H](NC(=O)[C@H](Cc1ccccc1)NC(=O)[C@@H](NC(=O)CNC(=O)[C@H](CCC(=O)O)NC(=O)C(C)(C)NC(=O)[C@@H](N)Cc1c[nH]cn1)[C@@H](C)O)[C@@H](C)O)C(C)C)C(=O)N[C@@H](C)C(=O)N[C@@H](Cc1c[nH]c2ccccc12)C(=O)N[C@@H](CC(C)C)C(=O)N[C@H](C(=O)N[C@@H](CCCNC(=N)N)C(=O)NCC(=O)N[C@@H](CCCNC(=N)N)C(=O)N[C@@H](CCCCNC(=O)[C@@H](N)CCCCNC(=O)CC[C@H](NC(=O)CC[C@H](NC(=O)CCCCCCCCCCOc1ccc(C(=O)O)cc1)C(=O)O)C(=O)O)C(=O)O)C(C)C [Example 40, N^ε26-[(2S)-2-amino-6-[[(4S)-4-carboxy-4-[[(4S)-4-carboxy-4-[11-(4-carboxyphenoxy)undecanoylamino]butanoyl]amino]butanoyl]amino]hexanoyl], N^ε37-[(2S)-2-amino-6-[[(4S)-4-carboxy-4-[[(4S)-4-carboxy-4-[11-(4-carboxyphenoxy)undecanoylamino]butanoyl]amino]butanoyl]amino]hexanoyl]-[Aib^8,Arg^34,Lys^37]-GLP-1-(7-37)-peptide] | 195000 | 30 | 2.6 | – | –
CC[C@H](C)[C@H](NC(=O)[C@H](Cc1ccccc1)NC(=O)[C@H](CCC(=O)O)NC(=O)[C@H](CCCCNC(=O)[C@@H](N)CCCCNC(=O)[C@@H](N)CCCCNC(=O)CC[C@H](NC(=O)CCCCCCCCCCCCC(=O)O)C(=O)O)NC(=O)[C@H](C)NC(=O)[C@H](C)NC(=O)[C@H](CCC(N)=O)NC(=O)CNC(=O)[C@H](CCC(=O)O)NC(=O)[C@H](CC(C)C)NC(=O)[C@H](Cc1ccc(O)cc1)NC(=O)[C@H](CO)NC(=O)[C@H](CO)NC(=O)[C@@H](NC(=O)[C@H](CC(=O)O)NC(=O)[C@H](CO)NC(=O)[C@@H](NC(=O)[C@H](Cc1ccccc1)NC(=O)[C@@H](NC(=O)CNC(=O)[C@H](CCC(=O)O)NC(=O)C(C)(C)NC(=O)[C@@H](N)Cc1c[nH]cn1)[C@@H](C)O)[C@@H](C)O)C(C)C)C(=O)N[C@@H](C)C(=O)N[C@@H](Cc1c[nH]c2ccccc12)C(=O)N[C@@H](CC(C)C)C(=O)N[C@H](C(=O)N[C@@H](Cc1c[nH]cn1)C(=O)NCC(=O)N[C@@H](CCCNC(=N)N)C(=O)N[C@@H](CCCCNC(=O)[C@@H](N)CCCCNC(=O)[C@@H](N)CCCCNC(=O)CC[C@H](NC(=O)CCCCCCCCCCCCC(=O)O)C(=O)O)C(=O)O)C(C)C [Example 3, N^ε26-[(2S)-2-amino-6-[[(2S)-2-amino-6-[[(4S)-4-carboxy-4-(13-carboxytridecanoylamino)butanoyl]amino]hexanoyl]amino]hexanoyl], N^ε37-[(2S)-2-amino-6-[[(2S)-2-amino-6-[[(4S)-4-carboxy-4-(13-carboxytridecanoylamino)butanoyl]amino]hexanoyl]amino]hexanoyl]-[Aib^8,His^34,Lys^37]-GLP-1-(7-37)-peptide] | – | – | – | 80 | 10.3
